From patent publication US5149632A, “Method for the detection of molds in foodstuffs and human and animal body fluids” (De Staat Der Nedelranden Vertengwoordigd Door De Minister …, priority 1988, dated 1992) come the findings set out here.

The target in assay [1] is rabbit anti-EPS antibodies. Put plainly: competition ELISA: inhibition of binding of rabbit antibodies to EPS (FIG. 3). Particulars: binding of antibodies evoked in rabbits to EPS; for 50 per cent inhibition concentration: FIG. 3, EPS species not stated. Here is the method: (§1) The inhibition characteristics were determined using a "competition" enzyme-linked immunosorbent assay (ELISA). Microtiter polyvinyl wells (Cooke, Dynatech) were coated with polysaccharides which had been isolated from culture fluids of moulds. For this purpose 0.1 ml of 0.07 M phosphate buffer, pH 7.2, with 0.15 M NaCl (PBS) and 1 μg polysaccharide were added to each well of the plate. After incubating for one night with shaking at 20° C., the wells were washed under a continuous stream of tap water with 0.05% Tween 20 for 0.5 min. A prepared mixture of 50 μl antibodies (rabbit IgG and human sera respectively), diluted in PBS, which contained 0.05% Tween 20 and 2% bovine serum albumin, and 50 μl inhibitor, which was diluted in the same buffer, were then added. After an incubation time of 60 minutes the wells were washed in the manner described above. The quantity of antibodies which was absorbed on the polysaccharides was determined with sheep-anti-rabbit-globulins and with sheep-anti-human-globulins respectively which were conjugated to peroxidase. For this purpose 0.1 ml conjugate diluted in PBS, which contained 0.05% Tween 20, was added to each well (dilution was checked using the checker board titration). The incubation and the washing were carried out in the manner described for the prepared test sample (mixture of serum or IgG and inhibitor).
(§2) The enzyme reaction was determined spectrophotometrically at 449 nm after adding a solution of 5-amino-salicylic acid and H2 O2 (0.1 ml 0.07% 5-amino-salicylic acid, pH 6.0, and 0.005% H2 O2 were added to each well) and an incubation for 30 minutes at 20° C.
The human serum and rabbit IgG solutions were diluted to concentrations at which the extinction coefficients without inhibitor start to decrease (extinction value approximately 0.70). Methyl-β-D-galactofuranoside and the dimers to heptamers inclusive of (1-5)-coupled β-D-galactofuranosides were used as inhibitors. […] The percentage inhibition was calculated as 100--100 (extinction with inhibitor - extinction without inhibitor).

The next assay deals with rabbit IgG anti-EPS. Put plainly: specific inhibition test in sandwich ELISA on walnut and herb samples. Conditions: 50 μg/ml inhibitor. In kind it is binding. Here is the method:
A sandwich ELISA was used to ascertain whether (1-5)-coupled β-D-galactofuranosyl radicals were capable of binding antibodies. 0.1 ml portions containing 10 μg/ml rabbit IgG anti-EPS, which was diluted in PBS, were introduced into wells of polyvinyl plates and incubated overnight with shaking at 20° C. After washing in the manner described above, 0.1 ml samples containing β-(1-5)coupled galactofuranosyl radicals in PBS with 0.05% Tween 20 and 2% bovine serum albumin were added. After an incubation time of 60 minutes the plates were washed. 0.1 ml of an optimum dilution (=dilution was checked using the checker board titration) of rabbit IgG anti-EPS, conjugated with peroxidase, diluted in PBS with 0.05% Tween 20 was then added to each well. The incubation and the washing were carried out in the manner described above. The enzyme reaction was also determined in the manner described above.
In addition an immunological determination, described under (F), of Penicillium and Aspergillus species was carried out on 16 samples of walnuts and 9 samples of herbs, use being made of rabbit IgG and, respectively 50 μg/ml of a framer of (1-5)-coupled β-D-galactofuranoside per test sample. The EPS antigen possibly present in the abovementioned products was extracted by boiling with a phosphate-buffered physiological saline solution.

The subject of assay [2] is human antibody binding to extracellular polysaccharides of Penicillium and Aspergillus species. Put plainly: competition ELISA: inhibition of human antibody binding of 40 serum samples to EPS. Conditions: 40 human serum samples. Here is the method: A total of 40 serum samples were collected arbitrarily from healthy Dutch males and females aged between 15 and 65.
as §1, §2
The human serum and rabbit IgG solutions were diluted to concentrations at which the extinction coefficients without inhibitor start to decrease (extinction value approximately 0.70). Methyl-β-D-galactofuranoside and the dimers to heptamers inclusive of (1-5)-coupled β-D-galactofuranosides were used as inhibitors. The inhibition effect of dimers of (1-2)-, (1-3)- and (1-6)-coupled β-D-galactofuranoside was also investigated (see Table B). The percentage inhibition was calculated as 100--100 (extinction with inhibitor - extinction without inhibitor).
The inhibition of the human antibody binding to EPS of moulds was tested with 40 serum samples using the tetramer of (1-5)-coupled β-D-galactofuranoside as inhibitor. The EPS in these tests originated from P. digitatum, P. cyclopium, P. dierckxii, P. funiculosum, A. niger, A. fumigatus and A. repens. Antibodies against P. funiculosum were not detectable in any serum sample, while antibodies against the other EPS derivatives were present in all 40 serum samples. The titers (reciprocal value of the dilution which gives the extinction equal to the mean value for 10 blank samples+2.81×standard deviation of these blank samples; confidence limit 99%), were in a range from 400 to 6,000. There was a significant correlation 99%) between the presence of antibodies in each serum and against the various Penicillium/Aspergillus EPS derivatives which were tested (Spearman Rank correlation test).
(An ELISA detects its analyte on a solid surface through an enzyme-linked reagent.)

Turning to `CO[C@@H]1O[C@@H]([C@H](O)CO)[C@H](O)[C@H]1O` [monomer, Methyl β-D-galactofuranoside], in assay [1], the “50 per cent inhibition concentration” value is recorded as “approximately 10,000 μg/ml”.

As to “tetramer of (1-5)-coupled β-D-galactofuranoside”, the “Number of samples with inhibition >50%” value in the assay with rabbit IgG anti-EPS (Herbs, 4 samples, ELISA titer >50,000) was determined as 4; with rabbit IgG anti-EPS (Herbs, 5 samples, ELISA titer 5000-50,000) it was 5; in the assay with rabbit IgG anti-EPS (Nuts, 3 samples, ELISA titer 100-500), 3; in the assay on rabbit IgG anti-EPS (Nuts, 4 samples, ELISA titer 5000-50,000), 4; in the assay on rabbit IgG anti-EPS (Nuts, 9 samples, ELISA titer 500-5000) it was 7. The “concentration giving complete inhibition (100%)” value in assay [1] stood at 100 µg/mL. In assay [1], the “50 per cent inhibition concentration” value came out at 30 µg/mL. Also, the “Number of samples with an inhibition of 25%” value was 15 in assay [2] (inhibitor 4 μg/ml), 34 in assay [2] (inhibitor 20 μg/ml), 36 in assay [2] (inhibitor 100 μg/ml) and 37 in assay [2] (inhibitor 500 μg/ml). Also, the “Number of samples with an inhibition of 50%” value in assay [2] (inhibitor 4 μg/ml) came to 0; in assay [2] (inhibitor 20 μg/ml), 12; in assay [2] (inhibitor 100 μg/ml) it was 32; in assay [2] (inhibitor 500 μg/ml), 36. Also, the “Number of samples with an inhibition of 90%” value in assay [2] (inhibitor 4 μg/ml) is reported as 0; in assay [2] (inhibitor 20 μg/ml) it was 0; in assay [2] (inhibitor 100 μg/ml), 0; in assay [2] (inhibitor 500 μg/ml) it was 15.
